The text below walks through data of patent publication US20040102364A1, “Backbone cyclized radiolabelled somatostatin analogs” (priority 2001, published 2004).

Read-outs that look alike come from different tables or passages of the source.

The target in one assay is T1, human cloned SST-R2 (Homo sapiens, UniProt P30874).
T1 construct: expressed in transfected cells; host or cells: CHO cells
Description: Inhibition of 125I-Tyr11-SRIF binding to cloned human SST-R2 membranes (CHO cells). On the procedure: (§1) The SST analogs were tested for their potency in inhibition of the binding of ^125I-Tyr^11-SRIF (based on the method described by Raynor et. al., Molecular Pharmacology 43: 838, 1993) to membrane preparations expressing the transmembranal SST receptors (SST-R1, 2, 3, 4 or 5). The receptor preparations used for these tests were either from the cloned human receptors selectively and stably expressed in Chinese Hamster Ovary (CHO) cells or from cell lines naturally expressing the SST-Rs. […] The binding reactions were filtered, the filters were washed and the bound radioactivity was counted in β counter after addition of scintillation solution.

For another assay, the target named is SST-R2 (Homo sapiens, UniProt P30874). Description: Inhibition of SRIF binding to SST-R2 (species not stated). As to conditions: for inhibition at 10 pM: read-out: IC50 Screen SRIF Inhibited (%) 0.01 nM; for inhibition at 0.0001 µM: read-out: IC50 Screen SRIF Inhibited (%) 0.1 nM; for inhibition at 0.001 µM: read-out: IC50 Screen SRIF Inhibited (%) 1 nM. The procedure: as §1, with “solution. […]” for “solution.”

Setting [1] is: human cloned receptor, read-out: Concentration (nM) of SST analogs to inhibit SRIF binding by 50%, SST-R 2.
The mark [2] stands for this setting: Quick Screen, 10 nM, SST-R2, read-out: Quick Screen SRIF Inhibited (%) 10 nM.
The mark [3] stands for this setting: Quick Screen, 100 nM, SST-R2, read-out: Quick Screen SRIF Inhibited (%) 100 nM.
Setting [4] is: read-out: IC50 Screen SRIF Inhibited (%) 10 nM.
The mark [5] stands for this setting: read-out: IC50 Screen SRIF Inhibited (%) 100 nM.

T1 sequence (P30874 whole entry): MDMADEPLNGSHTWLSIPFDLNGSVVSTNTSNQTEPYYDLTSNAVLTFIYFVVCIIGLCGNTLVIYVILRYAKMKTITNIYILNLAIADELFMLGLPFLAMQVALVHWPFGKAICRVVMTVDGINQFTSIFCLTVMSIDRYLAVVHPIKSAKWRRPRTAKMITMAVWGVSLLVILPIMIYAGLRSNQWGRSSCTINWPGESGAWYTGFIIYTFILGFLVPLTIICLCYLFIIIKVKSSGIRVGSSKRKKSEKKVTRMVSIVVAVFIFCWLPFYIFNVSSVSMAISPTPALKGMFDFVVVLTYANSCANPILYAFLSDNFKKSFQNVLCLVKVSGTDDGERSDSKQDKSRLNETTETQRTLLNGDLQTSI
SST-R2, sequence (P30874 whole entry): as above

Consider `C[C@@H](O)[C@@H]1NC(=O)[C@H](CCCCN)NC(=O)[C@@H](Cc2c[nH]c3ccccc23)NC(=O)[C@H](Cc2ccccc2)NC(=O)[C@@H]2CSSC[C@H](NC1=O)C(=O)N([C@@H](Cc1ccccc1)C(N)=O)CCCNC(=O)CCCN(C(=O)CNC(=O)CNC(=O)CNC(=O)CS)[C@@H](Cc1ccccc1)C(=O)N2` [PTR 3261, MAG3-PheC3-Cys-Phe-(D)Trp-Lys-Thr-Cys-PheN3-NH2], for which the IC50 at human cloned SST-R2 (human cloned SST-R2, 95% confidence interval given, read-out: IC50 calculated from the binding results of Table 3) was 119 nM; at human cloned SST-R2 (setting [1]), 100 nM. Besides, the “Total Bound (3-[125I]tyrosyl11)somatostatin-14 (cpm), Run 1” value stood at 8335 cpm on human cloned SST-R2 (peptide conc. 10 nM), 5398 cpm at human cloned SST-R2 (peptide conc. 100 nM), 1941 cpm on human cloned SST-R2 (peptide conc. 1000 nM) and 917 cpm on human cloned SST-R2 (peptide conc. 10000 nM). Also, the “Total Bound (3-[125I]tyrosyl11)somatostatin-14 (cpm), Run 2” value at human cloned SST-R2 (peptide conc. 10 nM) was found to be 8820 cpm; at human cloned SST-R2 (peptide conc. 100 nM), 5328 cpm; on human cloned SST-R2 (peptide conc. 1000 nM) it was 3169 cpm; at human cloned SST-R2 (peptide conc. 10000 nM), 1106 cpm. The “Total Bound (3-[125I]tyrosyl11)somatostatin-14 (cpm), Run 3” value is on record as 8098 cpm on human cloned SST-R2 (peptide conc. 10 nM), 5679 cpm at human cloned SST-R2 (peptide conc. 100 nM), 2024 cpm at human cloned SST-R2 (peptide conc. 1000 nM) and 2281 cpm on human cloned SST-R2 (peptide conc. 10000 nM).
`C[C@@H](O)[C@@H]1NC(=O)[C@H](CCCCN)NC(=O)[C@@H](Cc2c[nH]c3ccccc23)NC(=O)[C@H](Cc2c[nH]c3ccccc23)NC(=O)[C@H](Cc2ccccc2)NC(=O)[C@@H](NC(=O)CNC(=O)CN(CCN(CCN(CC(=O)O)CC(=O)O)CC(=O)O)CC(=O)O)CCNC(=O)CCCN(CC(N)=O)C(=O)[C@H](Cc2ccccc2)NC1=O` [PTR 3319, In-DTPA-Gly-Dab*-Phe-Trp-(D)Trp-Lys-Thr-Phe-GlyC3*-NH2]: the figures for the inhibition at 0.01 µM on SST-R2 (setting [2]) and at SST-R2 (setting [4]) were 65% and 57%, respectively. The inhibition at 0.1 µM was found to be 83% at SST-R2 (setting [3]) and 86% on SST-R2 (setting [5]). Moreover, the inhibition at 10 pM on SST-R2 is -8.5%. For the same molecule, the inhibition at 0.0001 µM at SST-R2 was -0.67%. In addition, the inhibition at 0.001 µM at SST-R2 was found to be 30%.
For `C[C@@H](O)[C@@H]1NC(=O)[C@H](CCCCN)NC(=O)[C@@H](Cc2c[nH]c3ccccc23)NC(=O)[C@H](Cc2c[nH]c3ccccc23)NC(=O)[C@H](Cc2ccccc2)NC(=O)[C@@H](NC(=O)CN(CCN(CCN(CC(=O)O)CC(=O)O)CC(=O)O)CC(=O)O)CCNC(=O)CCCN(CC(N)=O)C(=O)[C@H](Cc2ccccc2)NC1=O` [PTR 3337, In-DTPA-Dab*-Phe-Trp-(D)Trp-Lys-Thr-Phe-GlyC3*-NH2], the inhibition at 0.01 µM on SST-R2 (setting [2]) was 53%. For the same molecule, the inhibition at 0.1 µM at SST-R2 (setting [3]) amounted to 87%. Moreover, on SST-R2, the inhibition at 10 pM was -8.5%, the inhibition at 0.0001 µM worked out at 10% and the inhibition at 0.001 µM is 37%. In addition, at SST-R2 (setting [4]), the inhibition at 0.01 µM is 69%. For the same molecule, on SST-R2 (setting [5]), the inhibition at 0.1 µM is 89%.
For the molecule `C[C@@H](O)[C@@H]1NC(=O)[C@H](CCCCN)NC(=O)[C@@H](Cc2c[nH]c3ccccc23)NC(=O)[C@H](Cc2c[nH]c3ccccc23)NC(=O)[C@H](Cc2ccccc2)NC(=O)[C@@H](NC(=O)CCNC(=O)CN(CCN(CCN(CC(=O)O)CC(=O)O)CC(=O)O)CC(=O)O)CCNC(=O)CCCN(CC(N)=O)C(=O)[C@H](Cc2ccccc2)NC1=O` [PTR 3339, In-DTPA-b-Ala-Dab*-Phe-Trp-(D)Trp-Lys-Thr-Phe-GlyC3*-NH2], the inhibition at 0.01 µM on SST-R2 (setting [2]) stood at 27%; at SST-R2 (setting [4]), 52%. For the same molecule, the inhibition at 0.1 µM worked out at 69% on SST-R2 (setting [3]) and 78% at SST-R2 (setting [5]). At SST-R2, the inhibition at 10 pM is -11%. Moreover, the inhibition at 0.0001 µM at SST-R2 was 3%. The inhibition at 0.001 µM on SST-R2 turned out to be 17%.
Take `C[C@@H](O)[C@@H]1NC(=O)[C@H](CCCCN)NC(=O)[C@@H](Cc2c[nH]c3ccccc23)NC(=O)[C@H](Cc2c[nH]c3ccccc23)NC(=O)[C@H](Cc2ccccc2)NC(=O)[C@@H](NC(=O)CCCNC(=O)CN(CCN(CCN(CC(=O)O)CC(=O)O)CC(=O)O)CC(=O)O)CCNC(=O)CCCN(CC(N)=O)C(=O)[C@H](Cc2ccccc2)NC1=O` [PTR 3341, In-DTPA-GABA-Dab*-Phe-Trp-(D)Trp-Lys-Thr-Phe-GlyC3*-NH2]: the inhibition at 0.01 µM on SST-R2 (setting [2]) is 35%. The inhibition at 0.1 µM on SST-R2 (setting [3]) is 76%. Moreover, at SST-R2, the inhibition at 10 pM was -9.5%, the inhibition at 0.0001 µM was -4.8% and the inhibition at 0.001 µM was 12%. For the same molecule, the inhibition at 0.01 µM on SST-R2 (setting [4]) was determined as 44%. For the same molecule, the inhibition at 0.1 µM at SST-R2 (setting [5]) was determined as 76%.
On to “In-DTPA-3-aminomethylbenzoic acid-Phe(C3**)-Cys*-Phe-(D)Trp-Lys-Thr-Cys*-Phe(N3**)-NH2 [PTR 3355]”, for which the “SRIF Inhibited (%) 10 nM” value on SST-R2 (10 nM, SST-R2) is on record as 8%. For the same molecule, on SST-R2 (100 nM, SST-R2), the “SRIF Inhibited (%) 100 nM” value came out at 34%.
As for “In-DTPA-5-aminopentanoic acid-Dab*-Phe-Trp-(D)Trp-Lys-Thr-Phe-GlyC3*-NH2 [PTR 3343]”, the “IC50 Screen SRIF Inhibited (%) 0.01 nM” value on SST-R2 (IC50 Screen, 0.01 nM, SST-R2) is on record as −16%. Further, the “IC50 Screen SRIF Inhibited (%) 0.1 nM” value at SST-R2 (IC50 Screen, 0.1 nM, SST-R2) is recorded as −3.8%. Further, the “IC50 Screen SRIF Inhibited (%) 1 nM” value at SST-R2 (IC50 Screen, 1 nM, SST-R2) is given as 10%. For the same molecule, the “IC50 Screen SRIF Inhibited (%) 10 nM” value on SST-R2 (IC50 Screen, 10 nM, SST-R2) was 44%. The “IC50 Screen SRIF Inhibited (%) 100 nM” value on SST-R2 (IC50 Screen, 100 nM, SST-R2) stood at 76%. Moreover, the “Quick Screen SRIF Inhibited (%) 10 nM” value on SST-R2 (Quick Screen, 10 nM, SST-R2) was 37%. Further, on SST-R2 (Quick Screen, 100 nM, SST-R2), the “Quick Screen SRIF Inhibited (%) 100 nM” value is listed as 79%.
As to “In-DTPA-5-aminopentanoic acid-Phe(C3**)-Cys*-Phe-(D)Trp-Lys-Thr-Cys*-Phe(N3**)-NH2 [PTR 3353]”, the “SRIF Inhibited (%) 10 nM” value at SST-R2 (10 nM, SST-R2) was 14%. The “SRIF Inhibited (%) 100 nM” value at SST-R2 (100 nM, SST-R2) was 59%.
The matching figures for “In-DTPA-GABA-Phe(C3**)-Cys*-Phe-(D)Trp-Lys-Thr-Cys*-Phe(N3 **)-NH2 [PTR 3351]”: 5% and 53%.
Taken in the same sequence, the figures for “In-DTPA-Gly-Phe(C3**)-Cys*-Phe-(D)Trp-Lys-Thr-Cys*-Phe(N3**)-NH2 [PTR 3347]” were 38% and 51%.
The matching figures for “In-DTPA-b-Ala-Phe(C3**)-Cys*-Phe-(D)Trp-Lys-Thr-Cys*-Phe(N3**)-NH2 [PTR 3349]”: 20% and 54%.
In the case of “ReO-MA-Dpr(Gly)-Dab*-Phe-Trp-(D)Trp-Lys-Thr-Phe-GlyC3*-NH2 [PTR 3395]”, at human cloned SST-R2 (setting [1]), the IC50 is 1.14 nM.
